Reference: patent EP0073865B1, “Derivatives of iodothyronine compounds and their use in an assay for the free iodothyronine compounds” (AMERSHAM INTERNATIONAL plc, priority 1981, dated 1983)

What was measured:
[1] = molecular target: T1, TBG (Homo sapiens, UniProt P05543); test: Displacement of 125I-T4 tracer from TBG:anti-TBG binding reagent (binding strength relative to T4); conditions: for binding to TBG (in words): I-125 labelled tracer
T1 construct: from tissue; host or cells: human serum (resin stripped)
T1 sequence (P05543 21-415): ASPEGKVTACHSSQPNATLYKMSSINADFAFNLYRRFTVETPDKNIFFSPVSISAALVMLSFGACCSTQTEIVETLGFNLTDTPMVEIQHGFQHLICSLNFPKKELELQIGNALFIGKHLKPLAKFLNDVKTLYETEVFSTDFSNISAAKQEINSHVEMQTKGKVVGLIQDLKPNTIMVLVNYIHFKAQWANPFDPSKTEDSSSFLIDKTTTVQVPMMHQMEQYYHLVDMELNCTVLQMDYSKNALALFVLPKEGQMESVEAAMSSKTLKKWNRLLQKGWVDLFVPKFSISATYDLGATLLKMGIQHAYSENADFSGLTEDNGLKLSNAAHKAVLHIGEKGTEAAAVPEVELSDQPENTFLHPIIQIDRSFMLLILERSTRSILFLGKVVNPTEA
Method: (§1) Method for estimation of T4.EDTA binding strength to TBG and prealbumin relative to that of T4
(§2) Pre-precipitated antiserum (binding reagent) to either TBG or prealbumin is incubated with a serum source of TBG or prealbumin, so that the T4 binding protein is isolated on the binding reagent. Tracer ^125I-T4 is added to the resulting complex and is thus purified. The displacement of the tracer ^125I―T4, by varying concentrations of T4 and T4.EDTA, from the TBG or prealbumin, can then be studied. The results can be used to estimate the differences in binding affinity between T4 and T4.EDTA for the two T4 binding proteins.
• 2.1 Preparation of ^125I-T4:TBG:anti-TBG binding reagent • 2.1.1. Binding reagent preparation • 15% Donkey anti-sheep) in phosphate • 2% TBG Antiserum) buffer + 0.05% BSA
Equal quantities of the above solutions are mixed and rotated overnight at 4° so that the final concentrations in the binding reagent are 7.5% donkey anti-sheep, and 1% TBG antiserum. Centrifugation at 900 rpm, decantation and resuspension in fresh buffer are carried out twice to wash the reagent.
1 ml of resin stripped human serum and 20 ml of the above binding reagents are mixed for 1 hour at room temperature. Centrifugation, decantation and resuspension in fresh buffer (phosphate + 0.05% BSA) are carried out twice.
Typically 10 ml ofTBG:anti-TBG binding reagents, 28 ml of phosphate buffer + 0.05% BSA, and 2 ml of ^125I―T4 tracer solution (0.1 µCi high specific activity T4 per ml in phosphate buffer + 0.05% BSA) are mixed for 1 hour at room temperature. […]
(§3) Thus the percentage bound of the tracer at different T4 and T4.EDTA concentrations, can be determined in the two systems.
(§4) Tracer percentage bound is plotted against T4 and T4.EDTA concentrations, and from these curves an estimate of the non-specific binding can be made. The data can then be re-calculated, using this blank correction, plotted, and the T4 and T4.EDTA concentrations corresponding to a range of tracer percentage bound values can be read off the curve. […]

[2] = Stability of the tracer compound in water / assay buffer; type: physicochemical; conditions: on dilution into the assay buffer / contact with water
[3] = tested on: T4 antiserum; test: Affinity constant with respect to T4 antiserum, relative to T4; type: binding
[4] = molecular target: T2, TBPA (Homo sapiens, UniProt P02766); test: Displacement of 125I-T4 tracer from TBPA:anti-TBPA binding reagent (binding strength relative to T4); conditions: binding to TBPA (prealbumin), displacement of 125I-T4, 37°C
T2 construct: from tissue; host or cells: normal serum
Method: as §1, §2
This is prepared as for the anti-TBG binding reagent except that equal volumes of 30% donkey anti-rabbit second antibody and 4% TBPA antiserum solutions were mixed to give final concentrations of 15% donkey anti-rabbit, and 2% anti-TBPA. […]
as §3, §4

[5] = tested on: Antisera (having low T4 cross reactivity); test: Binding to antisera having low T4 cross reactivity, compared with T3

SMILES	binding to TBG (in words) [1]	affinity constant as % of the affinity constant of T4 ([1]; binding to TBG, displacement of 125I-T4, 37°C) [%]	stability in water [2]	affinity constant with respect to T4 antiserum as % of that of T4 [3] [%]	affinity constant as % of the affinity constant of T4 [4] [%]	binding to Antisera compared with T3 [5]
O=C(O)CN(CCN(CC(=O)O)CC(=O)NC(Cc1cc(I)c(Oc2cc(I)c(O)c(I)c2)c(I)c1)C(=O)O)CC(=O)O (centres unmarked) [T4.EDTA, 1-{3',5'-di-iodo-4' (3",5"-di-iodo-4"-Hydroxyphenoxy)phenyl} 2-carboxy-6,9-dicarboxymethyl-4-oxo-3,6,9,-triazaundecan-11-oic acid]	no significant tendency to bind to TBG	3.5	stable in water	90.4	2.7	
O=C(O)CN(CCN(CC(=O)O)CC(=O)NC(Cc1cc(I)c(Oc2ccc(O)c(I)c2)c(I)c1)C(=O)O)CC(=O)O (centres unmarked) [T3.EDTA, 2-carboxy-6,9-dicarboxymethyl-1 3',5' di-iodo-4' (3"-iodo-4"-hydroxy)phenoxy phenyl 4-oxo-3,6,9-triazaundecan-11-oic acid.]						equal, or better, binding than T3 itself
COC(=O)[C@H](Cc1cc(I)c(Oc2cc(I)c(O)c(I)c2)c(I)c1)NC(C)=O [N-Acetyl-thyroxine-methyl ester, N-acetyl-thyroxine-methyl ester, reference compound]	binds appreciably to TBG		only gives useful assay results within hours of dilution into the assay buffer			
